Read-outs that look alike come from different tables or passages of the source. Some results are limits rather than exact numbers.

The text below walks through data of article PMC6646794 (Biochimica et Biophysica Acta. Molecular Cell Research, 2019).

One test relates to TRPM2 W1355A I1368A. As to the kind of experiment: Whole cell patch-clamp, TRPM2 W1355A I1368A in HEK293 cells. The test is classed as cell-based, human. On the procedure:
(§1) HEK293 cells were kept at 37 °C and 5% CO2 in DMEM with 4.5 g/l glucose and GlutaMax-I (Gibco) supplemented with 10% (v/v) fetal bovine serum (Biochrom). Cells were split 1:10 to 1:20 twice a week.
The mutations W1355A and I1368A were inserted into the eukaryotic expression vector for TRPM2 (pIRES2-EGFP-TRPM2) by two sequential rounds of QuikChange mutagenesis using the following primer pairs: for W1355A: 5′-[…]-3′ and 5′-[…]-3′, for I1368A: 5′- […]-3′ and 5′-[…]-3′. The full open reading frame was confirmed by DNA sequencing (Eurofins MWG Operon, Ebersberg, Germany).
For patch clamp experiments wild type HEK293 cells were transfected with expression vectors for either wild type TRPM2 or TRPM2 W1355A/I1368A 24 h before the experiments. […] The intracellular solution contains 200 nM free Ca^2+ (calculated using MaxChelator, http://maxchelator.stanford.edu/CaEGTA-NIST.htm). Whole cell currents were recorded using a HEKA EPC-10 amplifier and PatchMaster software (HEKA Elektronik, Lamprecht, Germany). […]
For statistical analysis GraphPad Prism (v7.04 and v8.0.1; GraphPad Software) was used. […] After transformation all groups were normally distributed as assessed by D'Agostino & Pearson normality test. […]
(In general: The patch-clamp technique gives a direct electrical read-out from membranes.)

For another test, the system named is TRPM2. Particulars: cited from earlier work.
A further test has as its system wild-type TRPM2. As to the kind of experiment: Whole cell patch-clamp, wild-type TRPM2 in HEK293 cells. Particulars: for whole cell current at 37 °C / whole cell current at room temperature: 200 nM free Ca2+, maximum current at +15 mV, median, 8–13 cells per condition; for effect of raising temperature to 37 °C on current: one-way ANOVA, Bonferroni. It counts as cell-based, human. On the procedure:
as §1
For patch clamp experiments wild type HEK293 cells were transfected with expression vectors for either wild type TRPM2 or TRPM2 W1355A/I1368A 24 h before the experiments. To generate the transfection complex 2.5 μg of TRPM2 expression vector and 5 μl jetPEI reagent (PolyPlus Transfection, Strasbourg, France) were incubated for 30 min in a total volume of 250 μl (150 mM NaCl). Cells were detached from the culture bottle and adjusted to a density of 2.5 × 10^5 cells/ml. After addition of the transfection complex cells were seeded at low density to 35 mm cell culture dishes. Directly before the experiment the culture medium was replaced by bath solution (in mM: 140 N‑methyl‑D‑glucamine (NMDG), 5 KCl, 3.3 MgCl2, 1 CaCl2, 5 D‑glucose, 10 HEPES, adjusted to pH 7.4 with HCl). The replacement of Na^+ in the bath solution by NMDG (for which TRPM2 is impermeable) prevents cell rupture due to excessive current and the characteristic IV curve helps to distinguish activation of the nonselective cation channel from cells becoming leaky. […] The intracellular solution contains 200 nM free Ca^2+ (calculated using MaxChelator, http://maxchelator.stanford.edu/CaEGTA-NIST.htm). Whole cell currents were recorded using a HEKA EPC-10 amplifier and PatchMaster software (HEKA Elektronik, Lamprecht, Germany). To record TRPM2 activity, repetitive voltage ramps from −85 mV to +20 mV over 140 ms were applied every 5 s for 450 s. Before and in between ramps cells were clamped at −50 mV. Series resistance compensation was set to 70%. For temperature control the 35 mm dishes were placed inside an open culture dish incubator (DH-35i, Warner Instruments) connected to a single channel heater controller (TC-324C, Warner Instruments). Cells were continuously perfused at a flow rate of 0.3 ml/min with bath solution pre-warmed in a water bath.
For statistical analysis GraphPad Prism (v7.04 and v8.0.1; GraphPad Software) was used. Currents obtained from whole cell recordings tend to be positively skewed and were therefore log-transformed to achieve normality. After transformation all groups were normally distributed as assessed by D'Agostino & Pearson normality test. Data were tested by one-way ANOVA. p values from post-hoc comparisons between groups were adjusted for multiple comparison using Bonferroni correction. A significance level of α = 0.05 was adopted.

A further test relates to NudT9H domain. The test can be described thus: Thermal unfolding of NudT9H by nDSF. It counts as binding, human. The settings on record: NudT9H with ADPR versus without.
Where [1] appears, read: room temperature, 100 μM agonist in pipette.
[2] abbreviates: wild-type TRPM2, 100 μM agonist in pipette, room temperature to 37 °C.

As to `Nc1ncnc2c1ncn2[C@H]1C[C@H](O)[C@@H](COP(=O)(O)OP(=O)(O)OC[C@H]2OC(O)[C@H](O)[C@@H]2O)O1` (some centres unmarked) [2′-deoxy-ADPR, 2′-deoxy-adenosine diphosphate (ADP)-ribose], the “current compared to ADPR” value is reported as “did not significantly differ from that with ADPR” with TRPM2 W1355A I1368A (100 μM in pipette, room temperature and 37 °C); “significantly higher at room temperature” in the test with wild-type TRPM2 (wild-type TRPM2, 100 μM in pipette, room temperature, compared with 100 μM ADPR). Further, the “TRPM2 current compared with ADPR” value with TRPM2 (basal Ca2+ concentrations, ref [22]) is “elicits much higher TRPM2 currents than ADPR”. In the test on TRPM2 (ref [22]), the “Ca2+ sensitivity of TRPM2 activation” value is “less sensitive to Ca^2+”. Besides, in the test on wild-type TRPM2 (100 μM agonist in pipette), the “whole cell current at 37 °C” value was determined as 1.4 nA. Besides, the “whole cell current at room temperature” value with wild-type TRPM2 (setting [1]) is on record as 4.5 nA. Also, the “effect of raising temperature to 37 °C on current” value in the test on wild-type TRPM2 (setting [2]) is “did not significantly increase”.
In the case of ADP-ribose-2′-phosphate [2′-P-ADPR], in the test with TRPM2 (ref [21]), the TRPM2 agonism entry was “acts as partial agonist”.
For Adenosine diphosphate ribose [ADPR], the “effect of raising temperature to 37 °C on current” value in the test with TRPM2 W1355A I1368A (100 μM agonist in pipette, room temperature to 37 °C, one-way ANOVA, Bonferroni) is given as “no significant increase”; in the test with wild-type TRPM2 (setting [2]) it was “significantly increased”. Besides, the “stabilizing effect on NudT9H” value in the test with NudT9H domain is given as “ruling out a stabilizing effect of ADPR on NudT9H”. In addition, the TRPM2 agonism result with TRPM2 (ref [20]) is on record as “activates the channel”. In addition, the “Ca2+ dependence of TRPM2 activation by ADPR” value with TRPM2 (removal of both intra- and extracellular Ca2+, ref [15]) is reported as “completely prevents activation of the channel by ADPR”. In addition, the “effect of temperature >35 °C on evoked TRPM2 current” value in the test on TRPM2 (temperatures >35 °C, ref [17]) was “significantly potentiates the current evoked by ADPR”. For the same compound, the “increase of current from room temperature to 37 °C” value in the test with wild-type TRPM2 (100 μM agonist in pipette, room temperature to 37 °C, median values) is given as more than 10 fold. In addition, the “whole cell current at 37 °C” value with wild-type TRPM2 (100 μM agonist in pipette) amounted to 2.2 nA. Besides, the “whole cell current at room temperature” value in the test on wild-type TRPM2 (setting [1]) was 150 pA.
